Data on 15 molecules can be found in publication PMC7181201, “Dual P-Glycoprotein and CA XII Inhibitors: A New Strategy to Reverse the P-gp Mediated Multidrug Resistance (MDR) in Cancer Cells” (Molecules, 2020).

A word on the Ki: it is the dissociation constant of the complex between target and ligand, obtained from inhibition or displacement. The low end stands for tighter binding, the high end for weaker binding.

Some results are limits rather than exact numbers.

Series [1] addresses T1, hCA II (Homo sapiens, UniProt P00918).
T1 construct: made in house
Kind of series: Stopped-flow CO2 hydrase assay, hCA II. In kind it is biochemical. The conditions noted are these: for Ki: stopped flow, mean from 3 assays. The protocol:
(§1) An SX.18MV-R Applied Photophysics (Oxford, UK) stopped-flow instrument was used to assay the catalytic/inhibition of various CA isozymes. […] Saturated CO2 solutions in water at 25 °C were used as a substrate. Stock solutions of inhibitors were prepared at a concentration of 10 μM (in DMSO-water 1:1, v/v) and dilutions up to 0.01 nM done with the assay buffer mentioned above. […] Inhibitor and enzyme solutions were preincubated together for 10 min at room temperature prior to the assay, in order to allow for the formation of the E–I complex. […] The inhibition constants were obtained by non-linear least-squares methods using the Cheng–Prusoff equation, as reported earlier, and represent the mean from at least three different determinations. All CA isozymes used here were recombinant proteins obtained as reported earlier by our group.

Series [2] has as its target T2, hCA I (Homo sapiens, UniProt P00915).
T2 construct: made in house
Kind of series: Stopped-flow CO2 hydrase assay, hCA I. In kind it is biochemical. As to conditions: mean from 3 assays. As to the method:
as §1

The target of series [3] is T3, hCA XII (Homo sapiens, UniProt O43570).
T3 construct: made in house
T3 sequence (O43570 25-354): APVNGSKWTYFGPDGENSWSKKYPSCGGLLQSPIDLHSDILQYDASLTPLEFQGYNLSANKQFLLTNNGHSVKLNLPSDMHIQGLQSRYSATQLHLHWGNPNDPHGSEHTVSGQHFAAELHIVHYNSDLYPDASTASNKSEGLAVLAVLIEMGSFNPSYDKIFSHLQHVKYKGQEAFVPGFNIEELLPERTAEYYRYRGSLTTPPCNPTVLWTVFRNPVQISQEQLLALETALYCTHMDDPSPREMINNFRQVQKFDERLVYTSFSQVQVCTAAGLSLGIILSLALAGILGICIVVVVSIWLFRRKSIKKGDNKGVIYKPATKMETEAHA
Kind of series: Stopped-flow CO2 hydrase assay, hCA XII. In kind it is biochemical. As to conditions: for Ki: stopped flow, mean from 3 assays. The protocol: as §1

The target in series [4] is T4, P-gp (Homo sapiens, UniProt P08183).
T4 construct: doxorubicin resistant K562/DOX cell line overexpresses almost exclusively the transporter membrane protein P-gp; endogenous in cells; host or cells: K562/DOX (doxorubicin-selected human erythroleukemia cells)
T4 sequence (P08183 whole entry): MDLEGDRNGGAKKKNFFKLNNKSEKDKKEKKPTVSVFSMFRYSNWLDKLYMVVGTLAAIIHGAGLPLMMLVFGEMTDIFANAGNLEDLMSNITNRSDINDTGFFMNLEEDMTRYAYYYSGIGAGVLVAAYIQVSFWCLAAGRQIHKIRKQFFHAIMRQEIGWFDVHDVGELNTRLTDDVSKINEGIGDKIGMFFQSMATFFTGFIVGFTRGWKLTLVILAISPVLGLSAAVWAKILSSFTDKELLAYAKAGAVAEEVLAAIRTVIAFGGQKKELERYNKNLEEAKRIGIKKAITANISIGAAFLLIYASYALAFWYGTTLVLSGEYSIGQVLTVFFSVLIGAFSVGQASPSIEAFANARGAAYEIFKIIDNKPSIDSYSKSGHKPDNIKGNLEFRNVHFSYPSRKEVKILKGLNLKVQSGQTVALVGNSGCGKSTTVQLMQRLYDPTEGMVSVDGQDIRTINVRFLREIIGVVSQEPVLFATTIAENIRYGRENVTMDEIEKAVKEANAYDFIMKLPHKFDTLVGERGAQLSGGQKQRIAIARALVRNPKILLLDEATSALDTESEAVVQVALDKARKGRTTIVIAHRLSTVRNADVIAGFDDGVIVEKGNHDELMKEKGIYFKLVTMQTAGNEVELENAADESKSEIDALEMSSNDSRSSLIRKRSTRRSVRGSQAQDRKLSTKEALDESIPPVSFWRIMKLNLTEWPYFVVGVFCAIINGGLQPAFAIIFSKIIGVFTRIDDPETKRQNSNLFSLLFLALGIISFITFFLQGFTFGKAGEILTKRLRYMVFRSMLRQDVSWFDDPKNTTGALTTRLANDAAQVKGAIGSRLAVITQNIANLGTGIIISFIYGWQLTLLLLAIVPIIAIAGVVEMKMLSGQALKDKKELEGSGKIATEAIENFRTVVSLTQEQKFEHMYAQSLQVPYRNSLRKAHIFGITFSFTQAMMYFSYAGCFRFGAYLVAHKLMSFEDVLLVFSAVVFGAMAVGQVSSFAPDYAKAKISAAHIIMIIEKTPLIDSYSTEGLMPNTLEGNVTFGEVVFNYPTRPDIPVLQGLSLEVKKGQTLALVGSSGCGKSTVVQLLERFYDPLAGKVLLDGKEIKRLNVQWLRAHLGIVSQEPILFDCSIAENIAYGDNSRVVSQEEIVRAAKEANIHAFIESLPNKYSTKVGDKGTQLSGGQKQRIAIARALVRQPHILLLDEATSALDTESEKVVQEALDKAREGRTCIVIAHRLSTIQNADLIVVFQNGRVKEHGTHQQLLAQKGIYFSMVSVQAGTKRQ
Description: Rhodamine-123 uptake test on K562/DOX cells (flow cytometry). The format is cell-based. The protocol:
The results were expressed as the FR (fluorescence ratio), which is the ratio between the average fluorescence intensity of rhodamine in the presence and in the absence of modulators. Value 1 was attributed to the average fluorescence intensity of the samples exposed only to rhodamine.
An aliquot of cells (control) was incubated with the fluorochrome in the absence of inhibitors.
At the end of the uptake, cells were sedimented, washed twice in ice-cold PBS, placed in PBS on ice, and kept in the dark until flow cytometric analysis.
The histograms were generated by program GraphPad Prism 5 (GraphPad Prism software, Inc., San Diego, CA, USA); the data were obtained from the ratio between the average fluorescence intensity of the samples preincubated with the compounds under study and subsequently exposed to rhodamine, and the fluorescence of the sample exposed only to the rhodamine.
A general note: A flow cytometer gives signals particle by particle.

The target of series [5] is T5, hCA IX (Homo sapiens, UniProt Q16790).
T5 construct: made in house
Kind of series: Stopped-flow CO2 hydrase assay, hCA IX. In kind it is biochemical. The conditions noted are these: stopped flow, mean from 3 assays. The protocol: as §1

T2 sequence (P00915 whole entry): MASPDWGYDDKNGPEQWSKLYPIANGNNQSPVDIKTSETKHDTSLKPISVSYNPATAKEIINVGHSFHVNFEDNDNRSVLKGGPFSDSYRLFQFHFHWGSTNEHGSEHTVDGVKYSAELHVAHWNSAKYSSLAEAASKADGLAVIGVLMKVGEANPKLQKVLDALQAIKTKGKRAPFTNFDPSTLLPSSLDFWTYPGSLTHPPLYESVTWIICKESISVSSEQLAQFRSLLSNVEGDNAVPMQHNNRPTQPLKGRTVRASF

`COc1cc(/C=C/C(=O)OCCCN(C)CCCOC(=O)COc2ccc3ccc(=O)oc3c2)cc(OC)c1OC` [Compound 1, (E)-3-(methyl(3-(2-((2-oxo-2H-chromen-7-yl)oxy)acetoxy)propyl)amino)propyl 3-(3,4,5-trimethoxyphenyl)acrylate]: the Ki is over 10000 nM in series [1], over 10000 nM in series [2], 9.3 nM in series [3] and 142 nM in series [5]. Moreover, the “FR (fluorescence ratio, Rhd 123 uptake with/without modulator)” value came to 1.44 in series [4] (compound 3 µM) and 4.76 in series [4] (compound 30 µM).

For the molecule `COc1cc(/C=C/C(=O)OCCCCCN(C)CCCOC(=O)COc2ccc3ccc(=O)oc3c2)cc(OC)c1OC` [Compound 3, (E)-5-(methyl(3-(2-((2-oxo-2H-chromen-7-yl)oxy)acetoxy)propyl)amino)pentyl 3-(3,4,5-trimethoxyphenyl)acrylate], the Ki in series [1] is over 10000 nM; in series [2] it was over 10000 nM; in series [3] it was 48.8 nM; in series [5], 54.6 nM. Besides, the figures for the “FR (fluorescence ratio, Rhd 123 uptake with/without modulator)” value in series [4] (compound 3 µM) and in series [4] (compound 30 µM) were 1.00 and 2.58, respectively.

For `COc1cc(/C=C/C(=O)OCCCCCN(C)CCCCCOC(=O)COc2ccc3ccc(=O)oc3c2)cc(OC)c1OC` [Compound 4, (E)-5-(methyl(5-(2-((2-oxo-2H-chromen-7-yl)oxy)acetoxy)pentyl)amino)pentyl 3-(3,4,5-trimethoxyphenyl)acrylate], the Ki is over 10000 nM in series [1], over 10000 nM in series [2], 18.9 nM in series [3] and 26.6 nM in series [5]. Also, the “FR (fluorescence ratio, Rhd 123 uptake with/without modulator)” value is given as 1.99 in series [4] (compound 3 µM) and 5.45 in series [4] (compound 30 µM).

Turning to `COc1cc(/C=C/C(=O)OCCCCCCN(C)CCCCOC(=O)COc2ccc3ccc(=O)oc3c2)cc(OC)c1OC` [Compound 6, (E)-6-(methyl(4-(2-((2-oxo-2H-chromen-7-yl)oxy)acetoxy)butyl)amino)hexyl 3-(3,4,5-trimethoxyphenyl)acrylate], the Ki in series [1] is over 10000 nM; in series [2], over 10000 nM; in series [3], 36.4 nM; in series [5] it was 40.2 nM. Besides, the entries for the “FR (fluorescence ratio, Rhd 123 uptake with/without modulator)” value in series [4] (compound 3 µM) and in series [4] (compound 30 µM) were 1.39 and 1.98, respectively.

Turning to `COc1cc(C(=O)OCCCN(C)CCCCCOC(=O)COc2ccc3ccc(=O)oc3c2)cc(OC)c1OC` [Compound 9, 3-(methyl(5-(2-((2-oxo-2H-chromen-7-yl)oxy)acetoxy)pentyl)amino)propyl 3,4,5-trimethoxy benzoate], the Ki is over 10000 nM in series [1], over 10000 nM in series [2], 9.2 nM in series [3] and 133 nM in series [5]. Moreover, the “FR (fluorescence ratio, Rhd 123 uptake with/without modulator)” value is 1.00 in series [4] (compound 3 µM) and 3.95 in series [4] (compound 30 µM).

As for `COc1cc(C(=O)OCCCCCCN(C)CCCOC(=O)COc2ccc3ccc(=O)oc3c2)cc(OC)c1OC` [Compound 10, 6-(methyl(3-(2-((2-oxo-2H-chromen-7-yl)oxy)acetoxy)propyl)amino)hexyl 3,4,5-trimethoxy benzoate], the Ki is over 10000 nM in series [1], over 10000 nM in series [2], 8.9 nM in series [3] and 103 nM in series [5]. The “FR (fluorescence ratio, Rhd 123 uptake with/without modulator)” value in series [4] (compound 3 µM) is given as 1.16; in series [4] (compound 30 µM) it was 2.18.

Regarding `COc1cc(C(=O)OCCCCCCCN(C)CCOC(=O)COc2ccc3ccc(=O)oc3c2)cc(OC)c1OC` [Compound 11, 7-(methyl(2-(2-((2-oxo-2H-chromen-7-yl)oxy)acetoxy)ethyl)amino)heptyl 3,4,5-trimethoxy benzoate], the Ki in series [1] was over 10000 nM; in series [2], over 10000 nM; in series [3], 8.3 nM; in series [5], 97.1 nM. For the same molecule, the figures for the “FR (fluorescence ratio, Rhd 123 uptake with/without modulator)” value in series [4] (compound 3 µM) and in series [4] (compound 30 µM) were 1.11 and 1.58, respectively.

Turning to `CN(CCCCCOC(=O)COc1ccc2ccc(=O)oc2c1)CCCOC(=O)c1c2ccccc2cc2ccccc12` [Compound 12, 3-(methyl(5-(2-((2-oxo-2H-chromen-7-yl)oxy)acetoxy)pentyl)amino)propyl anthracene-9-carboxylate], the Ki in series [1] was over 10000 nM; in series [2], over 10000 nM; in series [3], 45.7 nM; in series [5], 151 nM. The “FR (fluorescence ratio, Rhd 123 uptake with/without modulator)” value in series [4] (compound 3 µM) was determined as 1.00; in series [4] (compound 30 µM), 2.53.

Take `CN(CCCCCCOC(=O)c1c2ccccc2cc2ccccc12)CCCOC(=O)COc1ccc2ccc(=O)oc2c1` [Compound 13, 6-(methyl(3-(2-((2-oxo-2H-chromen-7-yl)oxy)acetoxy)propyl)amino)hexyl anthracene-9-carboxylate]: the Ki in series [1] is over 10000 nM; in series [2] it was over 10000 nM; in series [3], 9.1 nM; in series [5], 82.7 nM. Further, the “preference for hCA XII with respect to hCA IX” value in series [3] (ratio of Ki values) is on record as “nine”. The “FR (fluorescence ratio, Rhd 123 uptake with/without modulator)” value amounted to 1.43 in series [4] (compound 3 µM) and 2.45 in series [4] (compound 30 µM).

For the molecule `CN(CCCCCCCOC(=O)c1c2ccccc2cc2ccccc12)CCOC(=O)COc1ccc2ccc(=O)oc2c1` [Compound 14, 7-(methyl(2-(2-((2-oxo-2H-chromen-7-yl)oxy)acetoxy)ethyl)amino)heptyl anthracene-9-carboxylate], the Ki in series [1] is over 10000 nM; in series [2] it was over 10000 nM; in series [3], 42.9 nM; in series [5], 126 nM. In addition, the “FR (fluorescence ratio, Rhd 123 uptake with/without modulator)” value was determined as 1.25 in series [4] (compound 3 µM) and 4.22 in series [4] (compound 30 µM).

In the case of `COc1cc(/C=C/C(=O)OCCCN(C)CCCOC(=O)c2ccc(S(N)(=O)=O)cc2)cc(OC)c1OC` [Compound 15, (E)-3-(methyl(3-((3-(3,4,5-trimethoxyphenyl)acryloyl)oxy)propyl)amino)propyl 4-sulfamoyl benzoate], the Ki was determined as 152 nM in series [1], 55.1 nM in series [2], 91 nM in series [3] and 178 nM in series [5]. Besides, the results for the “FR (fluorescence ratio, Rhd 123 uptake with/without modulator)” value in series [4] (compound 3 µM) and in series [4] (compound 30 µM) were 1.00 and 2.30, respectively.

Take `COc1cc(/C=C/C(=O)OCCCN(C)CCCCCOC(=O)c2ccc(S(N)(=O)=O)cc2)cc(OC)c1OC` [Compound 16, (E)-5-(methyl(3-((3-(3,4,5-trimethoxyphenyl)acryloyl)oxy)propyl)amino)pentyl 4-sulfamoyl benzoate]: the Ki in series [1] was found to be 555 nM; in series [2], 447 nM; in series [3] it was 94.3 nM; in series [5], 211 nM. Moreover, the figures for the “FR (fluorescence ratio, Rhd 123 uptake with/without modulator)” value in series [4] (compound 3 µM) and in series [4] (compound 30 µM) were 1.08 and 1.83, respectively.

On to `COc1cc(/C=C/C(=O)OCCCCCN(C)CCCOC(=O)c2ccc(S(N)(=O)=O)cc2)cc(OC)c1OC` [Compound 17, (E)-3-(methyl(5-((3-(3,4,5-trimethoxyphenyl)acryloyl)oxy)pentyl)amino)propyl 4-sulfamoyl benzoate], for which the Ki worked out at 204 nM in series [1], 56.6 nM in series [2], 33.1 nM in series [3] and 215 nM in series [5]. The “FR (fluorescence ratio, Rhd 123 uptake with/without modulator)” value is given as 1.13 in series [4] (compound 3 µM) and 3.90 in series [4] (compound 30 µM).

As to `COc1cc(/C=C/C(=O)OCCCCCN(C)CCCCCOC(=O)c2ccc(S(N)(=O)=O)cc2)cc(OC)c1OC` [Compound 18, (E)-5-(methyl(5-((3-(3,4,5-trimethoxyphenyl)acryloyl)oxy)pentyl)amino)pentyl 4-sulfamoyl benzoate], the Ki in series [1] worked out at 425 nM; in series [2], 62.6 nM; in series [3] it was 62.6 nM; in series [5], 226 nM. The “FR (fluorescence ratio, Rhd 123 uptake with/without modulator)” value is reported as 1.00 in series [4] (compound 3 µM) and 4.99 in series [4] (compound 30 µM).

For `COc1cc(/C=C/C(=O)OCCCCCCN(C)CCCOC(=O)c2ccc(S(N)(=O)=O)cc2)cc(OC)c1OC` [Compound 19, (E)-3-(methyl(6-((3-(3,4,5-trimethoxyphenyl)acryloyl)oxy)hexyl)amino)propyl 4-sulfamoyl benzoate], the “hCA II vs. hCA XII preference” value in series [1] (ratio of Ki values) is on record as 7 times. Moreover, the Ki in series [1] was 8.4 nM; in series [2] it was 510 nM; in series [3] it was 58.6 nM; in series [5], 39.7 nM. In addition, the “FR (fluorescence ratio, Rhd 123 uptake with/without modulator)” value is listed as 1.06 in series [4] (compound 3 µM) and 3.23 in series [4] (compound 30 µM).
